In ChEMBL document CHEMBL1201862, “PubChem BioAssay data set” (2004):
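In this assay, cells in 96-well plates receive the compound at five concentrations for 48 hours. Endpoints are linearly interpolated between the surrounding concentrations. GI50: concentration for 50% inhibition of growth.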 Activity calls are given as the source filed them. Rule as the data show it: active = GI50 up to about 1.1 µM and inactive = higher.

Tests used:
Assay in all cases: NCI tumour cell line growth inhibition, 48 h
CAKI-1 = tested on: CAKI-1
CCRF-CEM = tested on: CCRF-CEM
DMS-273 = tested on: DMS-273
HL-60 = tested on: HL-60
IGROV-1 = tested on: IGROV-1
K562 = tested on: K562
KM12 = tested on: KM12
NCI-H226 = tested on: NCI-H226
RXF 393 = tested on: RXF 393
SK-MEL-28 = tested on: SK-MEL-28
SK-OV-3 = tested on: SK-OV-3
SNB-75 = tested on: SNB-75
TK-10 = tested on: TK-10
UACC-257 = tested on: UACC-257
HT-29 = tested on: HT-29
SF-295 = tested on: SF-295

Structure (SMILES)	GI50 (CAKI-1)	GI50 (CCRF-CEM)	GI50 (DMS-273)	GI50 (HL-60)	GI50 (IGROV-1)	GI50 (K562)	GI50 (KM12)	GI50 (NCI-H226)	GI50 (RXF 393)	GI50 (SK-MEL-28)	GI50 (SK-OV-3)	GI50 (SNB-75)	GI50 (TK-10)	GI50 (UACC-257)	GI50 (HT-29)	GI50 (SF-295)
CC(C)O/C=C1\C(=O)C2(SCCS2)[C@H]2CCCC[C@@H]12	29.2 µM (inactive)	25.5 µM (inactive)	37.2 µM (inactive)	24.2 µM (inactive)	49.7 µM (inactive)	39.8 µM (inactive)	35.6 µM (inactive)	84.1 µM (inactive)	21.8 µM (inactive)	> 100 µM (inactive)	59.7 µM (inactive)	28.8 µM (inactive)	43 µM (inactive)	42.6 µM (inactive)		
CN(C(=O)c1ccco1)C(=S)N1CCN(c2ccccc2)CC1	> 100 µM (inactive)	> 100 µM (inactive)	> 100 µM (inactive)	> 100 µM (inactive)	> 100 µM (inactive)	> 100 µM (inactive)	> 100 µM (inactive)	71.3 µM (inactive)	> 100 µM (inactive)	> 100 µM (inactive)	> 100 µM (inactive)	> 100 µM (inactive)	> 100 µM (inactive)	> 100 µM (inactive)	> 100 µM (inactive)	> 100 µM (inactive)
CC1=CC(=C(c2ccc(N)c(C)c2)c2ccc(N)c(C)c2)C=CC1=N	15.2 µM (inactive)	2.86 µM (inactive)	2.45 µM (inactive)	3.72 µM (inactive)	13.4 µM (inactive)	2.92 µM (inactive)	3.24 µM (inactive)	3.93 µM (inactive)	5.92 µM (inactive)	5.71 µM (inactive)	4.66 µM (inactive)	1.51 µM (inactive)	15.5 µM (inactive)	3 µM (inactive)	3.64 µM (inactive)	0.873 µM (active)
c1ccc(SC(Sc2ccccc2)=C2CCC2)cc1	> 100 µM (inactive)	> 100 µM (inactive)	> 100 µM (inactive)	> 100 µM (inactive)		> 100 µM (inactive)	> 100 µM (inactive)		> 100 µM (inactive)	> 100 µM (inactive)	> 100 µM (inactive)	98.4 µM (inactive)	> 100 µM (inactive)	> 100 µM (inactive)		> 100 µM (inactive)
CSC1C=C(C(C)C)CCC1(C)SC (stereo not given)	18.3 µM (inactive)	21 µM (inactive)	19 µM (inactive)	2.3 µM (inactive)	20.9 µM (inactive)	16.7 µM (inactive)	14.3 µM (inactive)	17.4 µM (inactive)	15.5 µM (inactive)	19.4 µM (inactive)	21.4 µM (inactive)	17.6 µM (inactive)	21.4 µM (inactive)	15.9 µM (inactive)	15.4 µM (inactive)	
Cc1nc2sccn2c1C(=O)NN	> 100 µM (inactive)	> 100 µM (inactive)	> 100 µM (inactive)	> 100 µM (inactive)	> 100 µM (inactive)	> 100 µM (inactive)	> 100 µM (inactive)	> 100 µM (inactive)	> 100 µM (inactive)	> 100 µM (inactive)	> 100 µM (inactive)		> 100 µM (inactive)	> 100 µM (inactive)	> 100 µM (inactive)	> 100 µM (inactive)
COC(=O)C(=O)C(C(=O)C(=O)Nc1ccccc1[N+](=O)[O-])c1nc2ccc([N+](=O)[O-])cc2nc1O (stereo not given)	> 100 µM (inactive)	> 100 µM (inactive)	> 100 µM (inactive)	> 100 µM (inactive)	> 100 µM (inactive)	> 100 µM (inactive)	> 100 µM (inactive)	> 100 µM (inactive)	> 100 µM (inactive)	> 100 µM (inactive)	> 100 µM (inactive)	> 100 µM (inactive)	> 10 µM (inactive)	> 100 µM (inactive)	> 100 µM (inactive)	> 100 µM (inactive)
C/C(=N/O)c1ccc2c(c1)/C(=N/O)c1cc(/C(C)=N/O)ccc1-2	35.8 µM (inactive)		23.8 µM (inactive)	18.4 µM (inactive)	21.1 µM (inactive)	17.8 µM (inactive)	16.3 µM (inactive)	11.2 µM (inactive)	23 µM (inactive)	17.3 µM (inactive)	21.4 µM (inactive)	17.9 µM (inactive)	> 10 µM (inactive)	2.39 µM (inactive)	12.6 µM (inactive)	15.3 µM (inactive)
COc1ccc(C(=O)C(c2ccc(OC)cc2)C2(O)C(=O)Nc3c(C)cc(Cl)cc32)cc1 (stereo not given)		10.3 µM (inactive)	58.9 µM (inactive)	17.1 µM (inactive)	72.8 µM (inactive)	21.6 µM (inactive)	> 100 µM (inactive)	76.6 µM (inactive)	> 100 µM (inactive)	> 100 µM (inactive)	> 100 µM (inactive)	33.2 µM (inactive)	> 100 µM (inactive)	55 µM (inactive)	63.5 µM (inactive)	54.8 µM (inactive)
O=C(CC1(O)C(=O)Nc2c(Cl)ccc(Cl)c21)c1ccc(F)cc1 (stereo not given)	44.7 µM (inactive)	25.9 µM (inactive)	33.7 µM (inactive)	28.4 µM (inactive)		23.3 µM (inactive)	43 µM (inactive)	24.8 µM (inactive)	29.5 µM (inactive)	> 100 µM (inactive)	> 100 µM (inactive)	24.1 µM (inactive)	55.8 µM (inactive)	33.5 µM (inactive)	40.4 µM (inactive)	36 µM (inactive)
C=CCC1C(=O)CC2(C)CC(=O)C(CC=C)C12C (stereo not given)	> 100 µM (inactive)	> 100 µM (inactive)	> 100 µM (inactive)	> 100 µM (inactive)	> 100 µM (inactive)	> 100 µM (inactive)	> 100 µM (inactive)	> 100 µM (inactive)	> 100 µM (inactive)	> 100 µM (inactive)	> 100 µM (inactive)	76.9 µM (inactive)	> 100 µM (inactive)	> 100 µM (inactive)	> 100 µM (inactive)	> 100 µM (inactive)
CN(/N=C\c1ccnc2ccccc12)c1ccccc1	31.5 µM (inactive)	10 µM (inactive)	20 µM (inactive)	17.5 µM (inactive)	45.5 µM (inactive)	20.6 µM (inactive)	19 µM (inactive)		30.2 µM (inactive)	29.8 µM (inactive)	31.2 µM (inactive)	32.5 µM (inactive)	35.3 µM (inactive)	20 µM (inactive)	18.9 µM (inactive)	25.6 µM (inactive)
O=[N+]([O-])c1cc(/C=N/NS(=O)(=O)c2ccc(F)cc2)c(O)c([N+](=O)[O-])c1	76.2 µM (inactive)	37.6 µM (inactive)	30.8 µM (inactive)	38.5 µM (inactive)	69.5 µM (inactive)	41.2 µM (inactive)	21 µM (inactive)		36.6 µM (inactive)	82.8 µM (inactive)	30.1 µM (inactive)	25.9 µM (inactive)	57.1 µM (inactive)	42.3 µM (inactive)	22.3 µM (inactive)	52.8 µM (inactive)
O=C(O)CSc1nnc(-c2ccccc2O)[nH]1	> 100 µM (inactive)	> 100 µM (inactive)	> 100 µM (inactive)	> 100 µM (inactive)	> 100 µM (inactive)	> 100 µM (inactive)		> 100 µM (inactive)	> 100 µM (inactive)	> 100 µM (inactive)		> 100 µM (inactive)	> 100 µM (inactive)	> 100 µM (inactive)	> 100 µM (inactive)	> 100 µM (inactive)
O=c1c2ccccc2nc(-c2ccccc2Cl)n1NC1OC(CO)C(O)C(O)C1O (stereo not given)	> 100 µM (inactive)	> 100 µM (inactive)	> 100 µM (inactive)	> 100 µM (inactive)	> 100 µM (inactive)	> 100 µM (inactive)	> 100 µM (inactive)	> 100 µM (inactive)		> 100 µM (inactive)	> 100 µM (inactive)	97.9 µM (inactive)	> 100 µM (inactive)	> 100 µM (inactive)	> 100 µM (inactive)	> 100 µM (inactive)
COc1ccc(NC(=O)CC(=O)N/N=C(\C)c2cc3ccccc3oc2=O)cc1		> 100 µM (inactive)	> 100 µM (inactive)	> 100 µM (inactive)	> 100 µM (inactive)	> 100 µM (inactive)	> 100 µM (inactive)	> 100 µM (inactive)	> 100 µM (inactive)	> 100 µM (inactive)	> 100 µM (inactive)	> 100 µM (inactive)	> 100 µM (inactive)	89.9 µM (inactive)	> 100 µM (inactive)	> 100 µM (inactive)
O=C(CN1C(=O)c2ccccc2C1=O)OC1C=CCCC1 (stereo not given)	> 100 µM (inactive)	> 100 µM (inactive)	> 100 µM (inactive)	> 100 µM (inactive)	> 100 µM (inactive)	> 100 µM (inactive)	> 100 µM (inactive)	> 100 µM (inactive)	> 100 µM (inactive)	> 100 µM (inactive)	> 100 µM (inactive)	> 100 µM (inactive)	> 100 µM (inactive)	> 100 µM (inactive)		
C=CCc1ccc(O)c(-c2cc(C3Oc4c(-c5cc(CC=C)ccc5O)cc(O)cc4[C@@H]3CO)ccc2O)c1 (stereo not given in full)	47.3 µM (inactive)	20.7 µM (inactive)	20.4 µM (inactive)	18.5 µM (inactive)	20.3 µM (inactive)	15.6 µM (inactive)	27.4 µM (inactive)	53.8 µM (inactive)	21.2 µM (inactive)	26.7 µM (inactive)	42.7 µM (inactive)	45.9 µM (inactive)	66.1 µM (inactive)	73.5 µM (inactive)	33.3 µM (inactive)	48.3 µM (inactive)
